From patent publication US20230391760A1, “HETEROCYCLIC GLP-1 AGONISTS” (Gasherbrum Bio, Inc., priority 2020, published 2023)

Target: GLP-1 Receptor (Homo sapiens, UniProt P43220)
Assay: GLP-1R agonist cAMP stimulation assay (HEK293/GLP1R/CRE-LUC cells, cAMP dynamic 2 Kit)
Type: cell-based
Details: HEK293/CRE-Luc cell line stably expressing the GLP-1 Receptor, 30 min at 37° C.
How it was run: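 cAMP measured by HTRF competition (d2-labelled cAMP with cryptate antibody, 1 h, room temperature, protected from light). Before that, GLP1R/CRE-Luc HEK293 cells (1000/well) were exposed for 30 min at 37 °C to half-log compound dilutions in DPBS containing IBMX 0.5 mM and BSA 0.1%.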

GLP-1 Receptor, sequence (P43220 24-463, species assumed): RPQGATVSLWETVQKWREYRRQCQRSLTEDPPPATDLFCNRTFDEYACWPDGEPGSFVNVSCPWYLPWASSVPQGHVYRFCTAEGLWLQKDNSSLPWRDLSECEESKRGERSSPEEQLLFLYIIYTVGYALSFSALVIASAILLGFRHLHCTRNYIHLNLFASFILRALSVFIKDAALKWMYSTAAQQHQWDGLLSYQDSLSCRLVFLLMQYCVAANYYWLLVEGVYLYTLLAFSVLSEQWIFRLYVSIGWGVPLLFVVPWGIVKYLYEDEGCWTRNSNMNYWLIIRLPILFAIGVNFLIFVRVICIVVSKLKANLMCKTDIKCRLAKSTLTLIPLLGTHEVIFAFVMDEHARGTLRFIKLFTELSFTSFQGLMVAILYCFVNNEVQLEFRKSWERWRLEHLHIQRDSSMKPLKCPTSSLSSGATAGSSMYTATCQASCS

Row | SMILES | EC50 [nM]
1 | Fc1cc(Cl)ccc1COc1ncccc1C1=CCN(Cc2nc3cc(-c4nnc(C(F)(F)F)[nH]4)ccc3n2C[C@@H]2CCO2)CC1 [Compound 390a, 2-[(4-chloro-2-fluorophenyl)methoxy]-1′-[(1-{[(2S)-oxetan-2-yl]methyl}-5-[5-(trifluoromethyl)-4H-1,2,4-triazol-3-yl]-1H-1,3-benzodiazol-2-yl)methyl]-1′,2′,3′,6′-tetrahydro-3,4′-bipyridine] | 0.48
2 | CC1(c2ccc(Cl)cc2F)Oc2cccc(C3CCN(Cc4nc5cc(-c6nnc(C(F)(F)F)[nH]6)cnc5n4CC4(C#N)CC4)CC3)c2O1 (stereo not shown) [Compound 254a, 1-{[2-({4-[2-(4-chloro-2-fluorophenyl)-2-methyl-2H-1,3-benzodioxol-4-yl]piperidin-1-yl}methyl)-6-[5-(trifluoromethyl)-4H-1,2,4-triazol-3-yl]-3H-imidazo[4,5-b]pyridin-3-yl]methyl}cyclopropane-1-carbonitrile] | 0.069
3 | C[C@]1(c2ccc(Cl)cc2F)Oc2cccc(C3CCN(Cc4nc5cc(-c6nnc(C7CC7)[nH]6)cnc5n4C[C@@H]4CCO4)CC3)c2O1 [Compound 282a, 4-[(2S)-2-(4-chloro-2-fluorophenyl)-2-methyl-2H-1,3-benzodioxol-4-yl]-1-{[6-(5-cyclopropyl-4H-1,2,4-triazol-3-yl)-3-{[(2S)-oxetan-2-yl]methyl}-3H-imidazo[4,5-b]pyridin-2-yl]methyl}piperidine] | 0.45
4 | N#Cc1ccc(COc2cc(C3CCN(Cc4nc5cc(-c6nnc(C(F)(F)F)[nH]6)ncc5n4C[C@@H]4CCO4)CC3)ccc2F)c(F)c1 [Compound 471a, 3-fluoro-4-[(2-fluoro-5-{1-[(3-{[(2S)-oxetan-2-yl]methyl}-6-[5-(trifluoromethyl)-4H-1,2,4-triazol-3-yl]-3H-imidazo[4,5-c]pyridin-2-yl)methyl]piperidin-4-yl}phenoxy)methyl]benzonitrile] | 0.11
5 | O=C(Nc1ccc2c(c1)nc(CN1CCC(c3cccc(OCc4ccc(Cl)cc4F)n3)CC1)n2C[C@@H]1CCO1)C(F)(F)F [Compound 167a, N-{2-[(4-{6-[(4-chloro-2-fluorophenyl)methoxy]pyridin-2-yl}piperidin-1-yl)methyl]-1-{[(2S)-oxetan-2-yl]methyl}-1H-1,3-benzodiazol-5-yl}-2,2,2-trifluoroacetamide] | 1.1
6 | Cn1cc(-c2ccc3c(c2)nc(CN2CCC(c4cccc5c4OC(C)(c4ccc(Cl)cc4F)O5)CC2)n3C[C@@H]2CCO2)cn1 (stereo partly drawn) [Compound 233a, 2-((4-(2-(4-chloro-2-fluorophenyl)-2-methylbenzo[d][1,3]dioxol-4-yl)piperidin-1-yl)methyl)-5-(1-methyl-1H-pyrazol-4-yl)-1-(((S)-oxetan-2-yl)methyl)-1H-benzo[d]imidazole] | 4
7 | Cc1nc(-c2noc(=O)[nH]2)cc2nc(CN3CCC(c4cccc5c4O[C@@](C)(c4ccc(Cl)cc4F)O5)CC3)n(C[C@@H]3CCO3)c12 [Compound 434a, 3-[2-({4-[(2S)-2-(4-chloro-2-fluorophenyl)-2-methyl-2H-1,3-benzodioxol-4-yl]piperidin-1-yl}methyl)-4-methyl-3-{[(2S)-oxetan-2-yl]methyl}-3H-imidazo[4,5-c]pyridin-6-yl]-4,5-dihydro-1,2,4-oxadiazol-5-one] | 0.23
8 | N#Cc1ccc(COc2nc(C3CCN(Cc4nc5cc(-c6nnc(C(F)(F)F)[nH]6)nnc5n4C[C@@H]4CCO4)CC3)ccc2F)c(F)c1 [Compound 517a, 3-fluoro-4-{[(3-fluoro-6-{1-[(7-{[(2S)-oxetan-2-yl]methyl}-3-[5-(trifluoromethyl)-4H-1,2,4-triazol-3-yl]-7H-imidazo[4,5-c]pyridazin-6-yl)methyl]piperidin-4-yl}pyridin-2-yl)oxy]methyl}benzonitrile] | 0.043
9 | C[C@]1(c2ccc(Cl)cc2F)Oc2cccc(C3CCN(Cc4nc5cc(-c6nnc(C(F)(F)F)[nH]6)ncc5n4CC4(C#N)CC4)CC3)c2O1 [Compound 345a, 1-{[2-({4-[(2S)-2-(4-chloro-2-fluorophenyl)-2-methyl-2H-1,3-benzodioxol-4-yl]piperidin-1-yl}methyl)-6-[5-(trifluoromethyl)-4H-1,2,4-triazol-3-yl]-3H-imidazo[4,5-c]pyridin-3-yl]methyl}cyclopropane-1-carbonitrile] | 0.014
10 | C[C@]1(c2ccc(Cl)cc2F)Oc2cccc(C3CCN(Cc4nc5cc(-c6nnc(C(F)(F)F)[nH]6)ncc5n4C[C@@H]4CCCO4)CC3)c2O1 [Compound 426a, 4-[(2S)-2-(4-chloro-2-fluorophenyl)-2-methyl-2H-1,3-benzodioxol-4-yl]-1-[(3-{[(2S)-oxolan-2-yl]methyl}-6-[5-(trifluoromethyl)-4H-1,2,4-triazol-3-yl]-3H-imidazo[4,5-c]pyridin-2-yl)methyl]piperidine] | 0.088
11 | N#Cc1ccc(COc2cccc(N3CCN(Cc4nc5cc(-c6nnc(C(F)(F)F)[nH]6)cnc5n4C[C@@H]4CCO4)CC3)n2)c(F)c1 [Compound 495a, 3-fluoro-4-{[(6-{4-[(3-{[(2S)-oxetan-2-yl]methyl}-6-[5-(trifluoromethyl)-4H-1,2,4-triazol-3-yl]-3H-imidazo[4,5-b]pyridin-2-yl)methyl]piperazin-1-yl}pyridin-2-yl)oxy]methyl}benzonitrile] | 0.0084
12 | Cc1ccnn1C(C)C(=O)Nc1ccc2c(c1)nc(CN1CCC(c3cccc(OCc4ccc(Cl)cc4F)n3)CC1)n2C[C@@H]1CCO1 (stereo partly drawn) [Compound 185a, N-{2-[(4-{6-[(4-chloro-2-fluorophenyl)methoxy]pyridin-2-yl}piperidin-1-yl)methyl]-1-{[(2S)-oxetan-2-yl]methyl}-1H-1,3-benzodiazol-5-yl}-2-(5-methyl-1H-pyrazol-1-yl)propanamide] | 5.3
13 | CC1(c2ccc(Cl)cn2)Oc2cccc(C3CCN(Cc4nc5cc(-c6nnc(C(F)(F)F)[nH]6)ncc5n4C[C@@H]4CCCO4)CC3)c2O1 (stereo partly drawn) [Compound 425a, 5-chloro-2-(2-methyl-4-{1-[(3-{[(2S)-oxolan-2-yl]methyl}-6-[5-(trifluoromethyl)-4H-1,2,4-triazol-3-yl]-3H-imidazo[4,5-c]pyridin-2-yl)methyl]piperidin-4-yl}-2H-1,3-benzodioxol-2-yl)pyridine] | 0.13
14 | CC1(c2ccc(Cl)cn2)Oc2cccc(C3CCN(Cc4nc5cc(-c6noc(=O)[nH]6)cnc5n4C[C@@H]4CCO4)CC3)c2O1 (stereo partly drawn) [Compound 332a, 3-[2-({4-[2-(5-chloropyridin-2-yl)-2-methyl-2H-1,3-benzodioxol-4-yl]piperidin-1-yl}methyl)-3-{[(2S)-oxetan-2-yl]methyl}-3H-imidazo[4,5-b]pyridin-6-yl]-4,5-dihydro-1,2,4-oxadiazol-5-one] | 1.6
15 | O=C(Nc1ccc2c(c1)nc(CN1CCC(c3cccc(OCc4ccc(Cl)cc4F)n3)CC1)n2C[C@@H]1CCO1)C1Cc2ccncc2C1 (stereo partly drawn) [Compound 180a, N-{2-[(4-{6-[(4-chloro-2-fluorophenyl)methoxy]pyridin-2-yl}piperidin-1-yl)methyl]-1-{[(2S)-oxetan-2-yl]methyl}-1H-1,3-benzodiazol-5-yl}-5H,6H,7H-cyclopenta[c]pyridine-6-carboxamide] | 6
16 | C[C@]1(c2ccc(Cl)cc2F)Oc2cccc(C3CCN(Cc4nc5cc(C(N)=O)nnc5n4C[C@@H]4CCO4)CC3)c2O1 [Compound 432a, 6-({4-[(2S)-2-(4-chloro-2-fluorophenyl)-2-methyl-2H-1,3-benzodioxol-4-yl]piperidin-1-yl}methyl)-7-{[(2S)-oxetan-2-yl]methyl}-7H-imidazo[4,5-c]pyridazine-3-carboxamide] | 6.9
